Assay results taken from patent US20040097596A1 (priority 2000, published 2004).
Read-outs that look alike come from different tables or passages of the source.

Legend:
Phytophthora infestans = assay type: in vivo; conditions: for E, Expected % disease control / O, Observed % disease control / O-E: A76 potato
Oidium lycopersici = assay: Powdery mildew assay on detached tomato leaflets, % disease control, observed vs expected (Colby); assay type: in vivo
[1] = 0.03 ppm, Jan. 25, 2001, FB 2001/3001
[2] = 0.03 ppm, Jan. 26, 2001, FB 2001/3001
[3] = 0.03 ppm, Jan. 27, 2001, FB 2001/3001
[4] = 0.03 ppm, Jan. 28, 2001, FB 2001/3001
[5] = 0.03 ppm, Jan. 29, 2001, FB 2001/3001
[6] = 0.1 ppm, Jan. 25, 2001, FB 2001/3001
[7] = 0.1 ppm, Jan. 26, 2001, FB 2001/3001
[8] = 0.1 ppm, Jan. 27, 2001, FB 2001/3001
[9] = 0.1 ppm, Jan. 28, 2001, FB 2001/3001
[10] = 0.1 ppm, Jan. 29, 2001, FB 2001/3001
[11] = 0.3 ppm, Jan. 25, 2001, FB 2001/3001
[12] = 0.3 ppm, Jan. 26, 2001, FB 2001/3001
[13] = 0.3 ppm, Jan. 27, 2001, FB 2001/3001
[14] = 0.3 ppm, Jan. 28, 2001, FB 2001/3001
[15] = 0.3 ppm, Jan. 29, 2001, FB 2001/3001
[16] = tomato 980 Le/MM/Cf9-8, 0.1 ppm, Feb. 16, 2001
[17] = tomato 980 Le/MM/Cf9-8, 0.1 ppm, Feb. 17, 2001
[18] = tomato 980 Le/MM/Cf9-8, 0.1 ppm, Feb. 18, 2001
[19] = tomato 980 Le/MM/Cf9-8, 0.1 ppm, Feb. 19, 2001
[20] = tomato 980 Le/MM/Cf9-8, 0.1 ppm, Feb. 20, 2001
[21] = tomato 980 Le/MM/Cf9-44, 0.1 ppm, Feb. 16, 2001
[22] = tomato 980 Le/MM/Cf9-44, 0.1 ppm, Feb. 17, 2001
[23] = tomato 980 Le/MM/Cf9-44, 0.1 ppm, Feb. 18, 2001
[24] = tomato 980 Le/MM/Cf9-44, 0.1 ppm, Feb. 19, 2001
[25] = tomato 980 Le/MM/Cf9-44, 0.1 ppm, Feb. 20, 2001
[26] = tomato 981 Le/MM/Cf9-22, 0.1 ppm, Feb. 16, 2001
[27] = tomato 981 Le/MM/Cf9-22, 0.1 ppm, Feb. 17, 2001
[28] = tomato 981 Le/MM/Cf9-22, 0.1 ppm, Feb. 18, 2001
[29] = tomato 981 Le/MM/Cf9-22, 0.1 ppm, Feb. 19, 2001
[30] = tomato 981 Le/MM/Cf9-22, 0.1 ppm, Feb. 20, 2001

With `CO/C=C(/C(=O)OC)c1ccccc1Oc1cc(Oc2ccccc2C#N)ncn1` [Azoxystrobin, azoxystrobin] the “E, Expected % disease control” value (Phytophthora infestans; [1]) was 85.1%, the “O, Observed % disease control” value (Phytophthora infestans; [1]) was 86.1% and the O-E (Phytophthora infestans; [1]) was 1.0. The “E, Expected % disease control” value (Phytophthora infestans; [2]) was 91.0%, the “O, Observed % disease control” value (Phytophthora infestans; [2]) was 91.0% and the O-E (Phytophthora infestans; [2]) was 0.0. For the same molecule, the “E, Expected % disease control” value (Phytophthora infestans; [3]) was 84.2%, the “O, Observed % disease control” value (Phytophthora infestans; [3]) was 89.6% and the O-E (Phytophthora infestans; [3]) was 5.4. The “E, Expected % disease control” value (Phytophthora infestans; [4]) was 56.4%, the “O, Observed % disease control” value (Phytophthora infestans; [4]) was 84.9% and the O-E (Phytophthora infestans; [4]) was 28.4. For the same molecule, the “E, Expected % disease control” value (Phytophthora infestans; [5]) was 38.7%, the “O, Observed % disease control” value (Phytophthora infestans; [5]) was 63.8% and the O-E (Phytophthora infestans; [5]) was 25.1. For the same molecule, the “E, Expected % disease control” value (Phytophthora infestans; [6]) was 91.8%, the “O, Observed % disease control” value (Phytophthora infestans; [6]) was 91.7% and the O-E (Phytophthora infestans; [6]) was −0.1. The “E, Expected % disease control” value (Phytophthora infestans; [7]) was 95.1%, the “O, Observed % disease control” value (Phytophthora infestans; [7]) was 98.6% and the O-E (Phytophthora infestans; [7]) was −1.6. For the same molecule, the “E, Expected % disease control” value (Phytophthora infestans; [8]) was 93.1%, the “O, Observed % disease control” value (Phytophthora infestans; [8]) was 91.7% and the O-E (Phytophthora infestans; [8]) was −1.4. For the same molecule, the “E, Expected % disease control” value (Phytophthora infestans; [9]) was 76.1%, the “O, Observed % disease control” value (Phytophthora infestans; [9]) was 89.9% and the O-E (Phytophthora infestans; [9]) was 13.9. The “E, Expected % disease control” value (Phytophthora infestans; [10]) was 51.1%, the “O, Observed % disease control” value (Phytophthora infestans; [10]) was 86.9% and the O-E (Phytophthora infestans; [10]) was 35.8. For the same molecule, the “E, Expected % disease control” value (Phytophthora infestans; [11]) was 95.5%, the “O, Observed % disease control” value (Phytophthora infestans; [11]) was 97.2% and the O-E (Phytophthora infestans; [11]) was 1.7. The “E, Expected % disease control” value (Phytophthora infestans; [12]) was 97.2%, the “O, Observed % disease control” value (Phytophthora infestans; [12]) was 98.7% and the O-E (Phytophthora infestans; [12]) was 1.5. The “E, Expected % disease control” value (Phytophthora infestans; [13]) was 95.6%, the “O, Observed % disease control” value (Phytophthora infestans; [13]) was 97.9% and the O-E (Phytophthora infestans; [13]) was 2.4. The “E, Expected % disease control” value (Phytophthora infestans; [14]) was 87.1%, the “O, Observed % disease control” value (Phytophthora infestans; [14]) was 98.0% and the O-E (Phytophthora infestans; [14]) was 10.9. For the same molecule, the “E, Expected % disease control” value (Phytophthora infestans; [15]) was 74.6%, the “O, Observed % disease control” value (Phytophthora infestans; [15]) was 97.0% and the O-E (Phytophthora infestans; [15]) was 22.4. The “performance in combination with A76 (indicative of synergy)” value (Phytophthora infestans; in combination with A76 potato, observed vs expected disease control) was “better than expected”, the “performance in combination with the transgenic line (indicative of synergy)” value (Oidium lycopersici; all three transgenic tomato lines, observed vs expected disease control) was “better than expected” and the “E, expected disease control” value (Oidium lycopersici; [16]) was 97.5%. For the same molecule, the “O, observed disease control” value (Oidium lycopersici; [16]) was 93.01%, the O-E (Oidium lycopersici; [16]) was −4.49 and the “E, expected disease control” value (Oidium lycopersici; [17]) was 92.53%. For the same molecule, the “O, observed disease control” value (Oidium lycopersici; [17]) was 89.64%, the O-E (Oidium lycopersici; [17]) was −2.89 and the “E, expected disease control” value (Oidium lycopersici; [18]) was 79.68%. For the same molecule, the “O, observed disease control” value (Oidium lycopersici; [18]) was 86.84%, the O-E (Oidium lycopersici; [18]) was 7.16 and the “E, expected disease control” value (Oidium lycopersici; [19]) was 74.81%. For the same molecule, the “O, observed disease control” value (Oidium lycopersici; [19]) was 87.5%, the O-E (Oidium lycopersici; [19]) was 12.69 and the “E, expected disease control” value (Oidium lycopersici; [20]) was 67.47%. The “O, observed disease control” value (Oidium lycopersici; [20]) was 81.11%, the O-E (Oidium lycopersici; [20]) was 13.64 and the “E, expected disease control” value (Oidium lycopersici; [21]) was 93.9%. The “O, observed disease control” value (Oidium lycopersici; [21]) was 100%, the O-E (Oidium lycopersici; [21]) was 6.1 and the “E, expected disease control” value (Oidium lycopersici; [22]) was 84.21%. For the same molecule, the “O, observed disease control” value (Oidium lycopersici; [22]) was 97.12%, the O-E (Oidium lycopersici; [22]) was 12.91 and the “E, expected disease control” value (Oidium lycopersici; [23]) was 67.22%. For the same molecule, the “O, observed disease control” value (Oidium lycopersici; [23]) was 89.72%, the O-E (Oidium lycopersici; [23]) was 22.5 and the “E, expected disease control” value (Oidium lycopersici; [24]) was 61.62%. For the same molecule, the “O, observed disease control” value (Oidium lycopersici; [24]) was 86.36%, the O-E (Oidium lycopersici; [24]) was 24.74 and the “E, expected disease control” value (Oidium lycopersici; [25]) was 52.54%. For the same molecule, the “O, observed disease control” value (Oidium lycopersici; [25]) was 79.57%, the O-E (Oidium lycopersici; [25]) was 27.03 and the “E, expected disease control” value (Oidium lycopersici; [26]) was 93.41%. For the same molecule, the “O, observed disease control” value (Oidium lycopersici; [26]) was 96.01%, the O-E (Oidium lycopersici; [26]) was 2.6 and the “E, expected disease control” value (Oidium lycopersici; [27]) was 81.74%. For the same molecule, the “O, observed disease control” value (Oidium lycopersici; [27]) was 96.55%, the O-E (Oidium lycopersici; [27]) was 14.81 and the “E, expected disease control” value (Oidium lycopersici; [28]) was 69.49%. The “O, observed disease control” value (Oidium lycopersici; [28]) was 89.47%, the O-E (Oidium lycopersici; [28]) was 19.98 and the “E, expected disease control” value (Oidium lycopersici; [29]) was 63.9%. The “O, observed disease control” value (Oidium lycopersici; [29]) was 90.91%, the O-E (Oidium lycopersici; [29]) was 27.01 and the “E, expected disease control” value (Oidium lycopersici; [30]) was 56.11%. The “O, observed disease control” value (Oidium lycopersici; [30]) was 87.84% and the O-E (Oidium lycopersici; [30]) was 31.73.
